These results are taken from ChEMBL document CHEMBL4354883, “Design, Synthesis, and Biological Evaluation of HSP90 Inhibitor-SN38 Conjugates for Targeted Drug Accumulation” (J Med Chem, 2020).

SMILES strings stand for the structures. Active and inactive are the calls of the source. The rule behind the calls is not given here.

In series [1] the target is T1, Heat shock protein HSP90 (Homo sapiens, UniProt P07900+P08238). Kind of series: Inhibition of HSP90 in human HCT116 cells assessed as downregulation of AKT protein expression after 24 hrs by Western blot analysis. Type of series: cell-based. In general terms: Immunoblotting shows a protein as a band on a membrane.
Series [2] has as its target T1, Heat shock protein HSP90. Put plainly: Inhibition of HSP90 in human HCT116 cells assessed as upregulation of HSP70 expression at 0.2 to 5 uM after 24 hrs by Western blot analysis. It counts as cell-based.
In series [3] the target is T1, Heat shock protein HSP90. Kind of series: Inhibition of HSP90 in human A549 cells assessed as downregulation of AKT protein expression after 24 hrs by Western blot analysis. Type of series: cell-based.
Series [4] has as its target T1, Heat shock protein HSP90. Kind of series: Inhibition of HSP90 in human A549 cells assessed as upregulation of HSP70 expression at 0.2 to 5 uM after 24 hrs by Western blot analysis. It counts as cell-based.
The target in series [5] is T1, Heat shock protein HSP90. Kind of series: Inhibition of HSP90 in human A549 cells assessed as upregulation of HSP70 expression at 0.008 to 1 uM after 24 hrs by Western blot analysis. Type of series: cell-based.
Series [6] deals with T1, Heat shock protein HSP90. Kind of series: Inhibition of HSP90 in human A549 cells assessed as downregulation of Akt expression at 0.008 to 1 uM after 24 hrs by Western blot analysis. It counts as cell-based.
The nature of series [7]: Toxicity in heart of mouse xenografted with human Capan1 cells assessed as pathological changes at 50 mg/kg, iv for every 2 days measured at 2 hrs post last dose by H and E staining based analysis. It counts as organism-based. As to conditions: in vivo. Background: Xenograft models place foreign cells or tissue in a host animal.
The nature of series [8]: Prodrug release in human A549 cells assessed as increase in 7-ethyl-10-hydroxycamptothecin level at 5 uM after 1 to 12 hrs by LC-MS/MS analysis. Type of series: ADME, cell-based. As to conditions: a549, 5 µM.
In series [9] the target is T1, Heat shock protein HSP90. Put plainly: Inhibition of HSP90 in human HCT116 cells assessed as upregulation of HSP70 expression at 0.008 to 1 uM after 24 hrs by Western blot analysis. It counts as cell-based.
Series [10] can be described thus: Drug uptake in human HL7702 cells at 5 uM after 6 hrs in presence of HSP90 ATPase competitive inhibitor, NVP-AUY922 by confocal laser scanning microscopic analysis. As to conditions: l02, 6 h. Type of series: ADME, cell-based.
The test system of series [11] is Mus musculus. Kind of series: Down regulation of topoisomerase 1 expression in mouse xenografted with human Capan1 cells at 50 mg/kg, iv for every 2 days measured at 2 hrs post last dose by Western blot analysis. Type of series: functional, organism-based.
A short description of series [12]: Toxicity in mouse xenografted with human Capan1 cells assessed as increase in body weight at 50 mg/kg, iv for every 2 days. It counts as organism-based. As to conditions: in vivo, 48 h.
Series [13] in a line: Prodrug release in human A549 cells assessed as increase in 7-ethyl-10-hydroxycamptothecin level at 5 uM after 12 hrs by LC-MS/MS analysis. Type of series: ADME, cell-based. As to conditions: a549, 12 h.
Series [14] concerns Mus musculus. Put plainly: In vivo inhibition of HSP90 in mouse xenografted with human Capan1 cells assessed as increase in HSP70 protein expression at 50 mg/kg, iv for every 2 days measured at 2 hrs post last dose by Western blot analysis. It counts as functional, organism-based.
Series [15] can be described thus: Drug uptake in tumor of mouse xenografted with human Capan1 cells assessed as retention time of the compound at 50 mg/kg, iv by LC-MS/MS analysis. Type of series: ADME, organism-based, Neoplasm. As to conditions: in vivo.
Series [16] in a line: Drug uptake in tumor of mouse xenografted with human HCT116 cells at 50 mg/kg, iv administered as single dose measured up to 72 hrs by LC-MS/MS analysis. It counts as ADME, organism-based, Neoplasm. As to conditions: in vivo.
Series [17] has as its system Mus musculus. Put plainly: In vivo inhibition of HSP90 in mouse xenografted with human Capan1 cells assessed as decrease in AKT protein expression at 50 mg/kg, iv for every 2 days measured at 2 hrs post last dose by Western blot analysis. It counts as functional, organism-based.
In series [18] the target is T2, DNA topoisomerase 1 (Homo sapiens) (UniProt P11387).
T2 sequence (whole entry): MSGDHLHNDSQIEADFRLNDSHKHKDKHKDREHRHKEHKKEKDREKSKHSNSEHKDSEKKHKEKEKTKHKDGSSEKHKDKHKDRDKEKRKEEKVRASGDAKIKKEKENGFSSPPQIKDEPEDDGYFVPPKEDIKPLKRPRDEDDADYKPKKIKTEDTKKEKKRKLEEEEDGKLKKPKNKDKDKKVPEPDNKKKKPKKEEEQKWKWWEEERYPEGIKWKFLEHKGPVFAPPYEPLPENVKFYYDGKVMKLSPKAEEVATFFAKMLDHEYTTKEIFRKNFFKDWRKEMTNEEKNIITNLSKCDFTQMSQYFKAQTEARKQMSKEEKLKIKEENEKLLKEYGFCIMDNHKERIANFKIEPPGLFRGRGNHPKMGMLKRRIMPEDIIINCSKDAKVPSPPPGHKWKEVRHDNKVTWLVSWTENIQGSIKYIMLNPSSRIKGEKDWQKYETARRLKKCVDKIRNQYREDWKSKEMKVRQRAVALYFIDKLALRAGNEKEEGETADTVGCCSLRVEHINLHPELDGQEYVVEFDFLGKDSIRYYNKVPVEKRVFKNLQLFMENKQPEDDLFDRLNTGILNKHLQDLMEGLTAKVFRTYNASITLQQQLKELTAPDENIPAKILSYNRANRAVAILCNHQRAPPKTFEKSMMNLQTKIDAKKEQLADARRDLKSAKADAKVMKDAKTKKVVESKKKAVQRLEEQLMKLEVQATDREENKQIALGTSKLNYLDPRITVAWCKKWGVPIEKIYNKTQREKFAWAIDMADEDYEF
Kind of series: Inhibition of topoisomerase 1 in human HCT116 cells assessed as increase in phosphorylated KAP1 expression after 24 hrs by Western blot analysis. It counts as cell-based.

Series [19] relates to CAPAN-1. Kind of series: Antitumor activity against human Capan1 cells xenografted in mouse assessed as reduction in Ki67 expression at 50 mg/kg, iv for every 2 days measured at 2 hrs post last dose by Ki67 staining based immunohistochemical analysis. It counts as functional, organism-based.
The nature of series [20]: Prodrug release in mouse plasma xenografted with human HCT116 cells assessed as increase in 7-ethyl-10-hydroxycamptothecin level at 50 mg/kg, iv administered as single dose and measured after 30 mins to 72 hrs by LC-MS/MS analysis. Type of series: ADME, organism-based. As to conditions: in vivo.
Series [21] relates to CAPAN-1. Put plainly: Antitumor activity against human Capan1 cells xenografted in mouse assessed as reduction in tumor volume at 50 mg/kg, iv for every 2 days and measured twice per week by microcaliper method relative to control. It counts as functional.
Series [22] in a line: Drug uptake in human HL7702 cells in PBS solution at 5 uM after 6 hrs by confocal laser scanning microscopic analysis. It counts as ADME, cell-based. As to conditions: l02, 6 h.
A short description of series [23]: Toxicity in lung of mouse xenografted with human Capan1 cells assessed as pathological changes at 50 mg/kg, iv for every 2 days measured at 2 hrs post-last dose by H and E staining based analysis. Type of series: organism-based. As to conditions: in vivo.
Series [24] has as its system CAPAN-1. Kind of series: Antitumor activity against human Capan1 cells xenografted in mouse assessed as tumor cells with nuclear lysis at 36 mg/kg, iv for every 2 days measured at 2 hrs post last dose by H and E staining based analysis. It counts as functional, organism-based.
A short description of series [25]: Toxicity in liver of mouse xenografted with human Capan1 cells assessed as pathological changes at 50 mg/kg, iv for every 2 days measured at 2 hrs post last dose by H and E staining based analysis. Type of series: organism-based. As to conditions: in vivo.
Series [26] is described as follows: Prodrug release in tumor of mouse xenografted with human HCT116 cells assessed as increase in 7-ethyl-10-hydroxycamptothecin level by measuring retention time at 50 mg/kg, iv administered as single dose by LC-MS/MS analysis. As to conditions: in vivo. Type of series: ADME, organism-based, Neoplasm.

Turning to `CCc1c2c(nc3ccc(OC(=O)N4CCC(NC(=O)c5noc(-c6cc(C(C)C)c(O)cc6O)c5-c5ccc(CN6CCOCC6)cc5)CC4)cc13)-c1cc3c(c(=O)n1C2)COC(=O)[C@]3(O)CC`, the inhibition entry on Heat shock protein HSP90 [1] and at Heat shock protein HSP90 [3] was “Dose-dependent effect” in each case. Besides, the inhibition entry on Heat shock protein HSP90 [2] and at Heat shock protein HSP90 [4] was “Active” throughout.
A word on the T/C: it is the ratio of treated to control. On to `CCc1c2c(nc3ccc(O)cc13)-c1cc3c(c(=O)n1C2)COC(=O)[C@@]3(CC)OC(=O)CNC(=O)c1noc(-c2cc(C(C)C)c(O)cc2O)c1-c1ccc(CN2CCOCC2)cc1`, for which the inhibition result on Heat shock protein HSP90 [5], at Heat shock protein HSP90 [6] and at Heat shock protein HSP90 [9] was “inactive” in each case. The Activity result in [7] is reported as “Non-Toxic”; in series [12], 10%; in series [23], “Non-Toxic”; in series [25], “Non-Toxic”. Besides, the Drug metabolism entry in [8], in series [13] and in [20] was “Metabolite_Detected” throughout. Further, the Drug uptake entry in series [10] is recorded as “Not Active”; in series [16] it was “Active”; in series [22], “Not Active”. Moreover, the inhibition entry in the series with Mus musculus [11], in the series on Mus musculus [14] and in the series with Mus musculus [17] was “Active” in each case. Besides, the Retention_time in series [15] and in series [26] was 72 h throughout. Moreover, the inhibition result in series [18] is “Dose-dependent effect”. The result in the series on CAPAN-1 [19] and in the series on CAPAN-1 [24] was Active. The T/C in the series with CAPAN-1 [21] is recorded as 1.86%.
